The assay concerns the target IRAK4 (Homo sapiens (Human), UniProt Q9NWZ3). As to the kind of experiment: IRAK4 Inhibition Assay. The format is biochemical. As to conditions: ATP 500 μM; IRAK4 0.6 nM. The gist of the method: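 Readout: electrophoretic (LabChip) separation of fluorescent peptide substrate from phosphorylated product after EDTA quench. Reactions ran 60 min at room temperature with 0.6 nM IRAK4, 1.5 μM peptide and 500 μM ATP; inhibition referenced to no-enzyme (100%) and vehicle (0%) controls.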

pIC50: −log10 of the molar value.

For orientation: pIC50 means −log10 of the IC50, conventionally taken in molar units.

Chain of IRAK4 (Q9NWZ3 whole entry, species assumed): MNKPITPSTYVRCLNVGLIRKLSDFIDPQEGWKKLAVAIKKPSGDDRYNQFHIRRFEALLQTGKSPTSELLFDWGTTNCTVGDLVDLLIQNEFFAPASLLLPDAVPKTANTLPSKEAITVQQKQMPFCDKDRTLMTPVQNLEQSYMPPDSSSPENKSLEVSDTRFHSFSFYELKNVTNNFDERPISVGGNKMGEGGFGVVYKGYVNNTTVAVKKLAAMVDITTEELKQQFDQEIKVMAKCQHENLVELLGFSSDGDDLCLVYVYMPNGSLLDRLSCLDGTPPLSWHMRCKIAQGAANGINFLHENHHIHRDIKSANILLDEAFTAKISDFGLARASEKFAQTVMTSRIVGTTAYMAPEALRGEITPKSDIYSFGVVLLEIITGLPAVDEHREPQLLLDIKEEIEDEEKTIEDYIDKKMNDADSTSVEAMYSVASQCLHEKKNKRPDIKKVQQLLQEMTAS

As to `CC(C)Nc1cc(-n2ncc3cc(C#N)cnc32)ncc1-c1cn(C2COC2)nn1` [Example 15, 1-(4-(isopropylamino)-5-(1-(oxetan-3-yl)-1H-1,2,3-triazol-4-yl)pyridin-2-yl)-1H-pyrazolo[3,4-b]pyridine-5-carbonitrile], the pIC50 was 8.15.

As for `CC(C)Nc1cc(-n2ncc3cc(C#N)cnc32)ncc1-c1cn(-c2cccnc2C#N)nn1` [Example 111, 1-(5-(1-(2-cyanopyridin-3-yl)-1H-1,2,3-triazol-4-yl)-4-(isopropylamino)pyridin-2-yl)-1H-pyrazolo[3,4-b]pyridine-5-carbonitrile], the pIC50 was 7.89. As for `CC(C)Nc1cc(-n2ncc3cc(C#N)cnc32)ncc1-c1cn(-c2cccc(O)c2)nn1` [Example 103, 1-(5-(1-(3-hydroxyphenyl)-1H-1,2,3-triazol-4-yl)-4-(isopropylamino)pyridin-2-yl)-1H-pyrazolo[3,4-b]pyridine-5-carbonitrile], the pIC50 is 6.76.

As to `CC(C)Nc1cc(-n2ncc3cc(C#N)cnc32)ncc1-c1cn([C@H]2CCN(C(=O)c3cccnc3)C[C@H]2O)nn1` [Example 184, 1-(5-(1-((3R,4S)-3-hydroxy-1-nicotinoylpiperidin-4-yl)-1H-1,2,3-triazol-4-yl)-4-(isopropylamino)pyridin-2-yl)-1H-pyrazolo[3,4-b]pyridine-5-carbonitrile], the pIC50 is 7.70. Consider `CC(O)Cc1cn(-c2cnc(-n3ncc4cc(C#N)cnc43)cc2NC(C)C)nn1` (stereo not shown) [Example 268, 1-(5-(4-(2-hydroxypropyl)-1H-1,2,3-triazol-1-yl)-4-(isopropylamino)pyridin-2-yl)-1H-pyrazolo[3,4-b]pyridine-5-carbonitrile], for which the pIC50 was 7.42. For `CC(F)Cc1cn(-c2cnc(-n3ncc4cc(C#N)cnc43)cc2NC(C)C)nn1` (single isomer, unassigned) [Example 292, 1-(5-(4-(2-fluoropropyl)-1H-1,2,3-triazol-1-yl)-4-(isopropylamino)pyridin-2-yl)-1H-pyrazolo[3,4-b]pyridine-5-carbonitrile], the pIC50 was 7.54. As to `CC(C)Nc1cc(-n2ncc3cc(C#N)cnc32)ncc1-n1cc(C(C)(C)O)nn1` [Example 298, 1-(5-(4-(2-hydroxypropan-2-yl)-1H-1,2,3-triazol-1-yl)-4-(isopropylamino)pyridin-2-yl)-1H-pyrazolo[3,4-b]pyridine-5-carbonitrile], the pIC50 was 6.71.

Take `CC(C)Nc1cc(-n2cnc3cc(C#N)cnc32)ncc1-c1cn(CC(O)Cc2ccccc2)nn1` (single isomer, unassigned) [Example 79, 3-(5-(1-(2-hydroxy-3-phenylpropyl)-1H-1,2,3-triazol-4-yl)-4-(isopropylamino)pyridin-2-yl)-3H-imidazo[4,5-b]pyridine-6-carbonitrile]: the pIC50 is 7.59. Next, `CC(C)Nc1cc(-n2ncc3cc(C#N)cnc32)ncc1-n1cc(CC(C)(C)O)nn1` [Example 306, 1-(5-(4-(2-hydroxy-2-methylpropyl)-1H-1,2,3-triazol-1-yl)-4-(isopropylamino)pyridin-2-yl)-1H-pyrazolo[3,4-b]pyridine-5-carbonitrile]: 7.25; `CC(C)Nc1cc(-n2ncc3cc(C#N)cnc32)ncc1-n1ccc(C#N)n1` [Example 248, 1-(5-(3-cyano-1H-pyrazol-1-yl)-4-(isopropylamino)pyridin-2-yl)-1H-pyrazolo[3,4-b]pyridine-5-carbonitrile]: 7.18; `CC(C)Nc1cc(-n2ncc3cc(C#N)cnc32)ncc1-n1ccc(-c2cccnc2)n1` [Example 249, 1-(4-(isopropylamino)-5-(3-(pyridin-3-yl)-1H-pyrazol-1-yl)pyridin-2-yl)-1H-pyrazolo[3,4-b]pyridine-5-carbonitrile]: 7.33. Next, `CCC(C)(O)c1cn(-c2cnc(-n3ncc4cc(C#N)cnc43)cc2NC(C)C)nn1` (stereo not shown) [Example 322, 1-(5-(4-(2-hydroxybutan-2-yl)-1H-1,2,3-triazol-1-yl)-4-(isopropylamino)pyridin-2-yl)-1H-pyrazolo[3,4-b]pyridine-5-carbonitrile]: 7.41.

With `CC(C)Nc1cc(-n2ncc3cc(C#N)cnc32)ncc1-c1cn(-c2cccnc2)nn1` [Example 174, 1-(4-(isopropylamino)-5-(1-(pyridin-3-yl)-1H-1,2,3-triazol-4-yl)pyridin-2-yl)-1H-pyrazolo[3,4-b]pyridine-5-carbonitrile], the pIC50 is 7.77. Under `CC(C)Nc1cc(-n2ncc3cc(Cl)cnc32)ncc1-c1cn(C2COC2)nn1` [Example 26, 2-(5-chloro-1H-pyrazolo[3,4-b]pyridin-1-yl)-N-isopropyl-5-(1-(oxetan-3-yl)-1H-1,2,3-triazol-4-yl)pyridin-4-amine] stands 7.57. `CC(C)Nc1cc(-n2ncc3cc(C#N)cnc32)ncc1-c1cn(CC(N)=O)cn1` [Example 237, 2-(4-(6-(5-cyano-1H-pyrazolo[3,4-b]pyridin-1-yl)-4-(isopropylamino)pyridin-3-yl)-1H-imidazol-1-yl) acetamide]: the pIC50 is 7.43. As for `CC(C)Nc1cc(-n2ncc3cc(C#N)cnc32)ncc1-n1cc(CNC(N)=O)nn1` [Example 313, 1-((1-(6-(5-cyano-1H-pyrazolo[3,4-b]pyridin-1-yl)-4-(isopropylamino)pyridin-3-yl)-1H-1,2,3-triazol-4-yl)methyl)urea], the pIC50 was 6.94. Next, `CC(C)Nc1cc(-n2ncc3cc(C#N)cnc32)ncc1-n1cc(C2CC2)nn1` [Example 300, 1-(5-(4-cyclopropyl-1H-1,2,3-triazol-1-yl)-4-(isopropylamino)pyridin-2-yl)-1H-pyrazolo[3,4-b]pyridine-5-carbonitrile]: 7.66. Take `CC(C)Nc1cc(-n2ncc3cc(C#N)cnc32)ncc1-n1cc(-c2ccccn2)cn1` [Example 245, 1-(4-(isopropylamino)-5-(4-(pyridin-2-yl)-1H-pyrazol-1-yl)pyridin-2-yl)-1H-pyrazolo[3,4-b]pyridine-5-carbonitrile]: the pIC50 is 6.48. Next, `CC(C)Nc1cc(-n2ncc3cc(C#N)cnc32)ncc1-c1cn(C(C)(C)C)nn1` [Example 18, 1-(5-(1-(tert-butyl)-1H-1,2,3-triazol-4-yl)-4-(isopropylamino)pyridin-2-yl)-1H-pyrazolo[3,4-b]pyridine-5-carbonitrile]: 7.77; `CC(C)Nc1cc(-n2ncc3cc(C#N)cnc32)ncc1-n1cc(CO)nn1` [Example 295, 1-(5-(4-(hydroxymethyl)-1H-1,2,3-triazol-1-yl)-4-(isopropylamino)pyridin-2-yl)-1H-pyrazolo[3,4-b]pyridine-5-carbonitrile]: 7.32.

With `CC(C)Nc1cc(-n2ncc3cc(C#N)cnc32)ncc1-n1cc(-c2ccccn2)nn1` [Example 304, 1-(4-(isopropylamino)-5-(4-(pyridin-2-yl)-1H-1,2,3-triazol-1-yl)pyridin-2-yl)-1H-pyrazolo[3,4-b]pyridine-5-carbonitrile], the pIC50 is 6.94.

On to `CC(C)Nc1cc(-n2ncc3cc(C#N)cnc32)ncc1-n1cc(C(C)C)cn1` [Example 244, 1-(5-(4-isopropyl-1H-pyrazol-1-yl)-4-(isopropylamino)pyridin-2-yl)-1H-pyrazolo[3,4-b]pyridine-5-carbonitrile], for which the pIC50 was 7.21.

Source of the values: patent US10294229B2, “Heteroaryl substituted aminopyridine compounds” (BRISTOL-MYERS SQUIBB COMPANY, priority 2015, dated 2019).
